Values quoted from earlier work as cited in patent US20200170998A1, “UMBILICAL CORD BLOOD SERUM AND UMBILICAL CORD BLOOD PLASMA PREPARATION IN COMBINATION WITH A NONSTEROIDAL ANTI-INFLAMMATORY DRUG AND FREEZE-DRYING THE COMPOSITION” (CELLULA LLC, priority 2018, published 2020).

System: corneal epithelial cells
Conditions: in-vitro; control a balanced salt solution

Row | SMILES | toxicity on corneal epithelial cells
1 | O=C(O)Cc1ccccc1Nc1c(Cl)cccc1Cl [Diclofenac] | significant cellular toxicity
2 | CC(=O)[C@@]1(O)CC[C@H]2[C@@H]3C[C@H](C)C4=CC(=O)C=C[C@]4(C)[C@@]3(F)[C@@H](O)C[C@@]21C [Flourometholone] | most severe toxicity
3 | Nc1c(CC(=O)O)cccc1C(=O)c1ccc(Br)cc1 [bromfenac] | less cellular damage and showed no difference with the control
4 | CC(C(=O)O)c1ccc2c(c1)Cc1cccnc1O2 (stereo not shown) [pranoprofen] | less cellular damage and showed no difference with the control
